Source: PMC11154005 (Science (New York, N.Y.), 2023)

Target: GerA complex (GerAA-GerAB-GerAC) (Bacillus subtilis, UniProt P07869)
Assay: membrane depolarisation, DiSC3
Format: cell-based
Settings: 50 mM L-alanine; 30 min after addition; agonist, recognised by GerAB subunit

Chain of GerA complex (GerAA-GerAB-GerAC) (P07869 whole entry): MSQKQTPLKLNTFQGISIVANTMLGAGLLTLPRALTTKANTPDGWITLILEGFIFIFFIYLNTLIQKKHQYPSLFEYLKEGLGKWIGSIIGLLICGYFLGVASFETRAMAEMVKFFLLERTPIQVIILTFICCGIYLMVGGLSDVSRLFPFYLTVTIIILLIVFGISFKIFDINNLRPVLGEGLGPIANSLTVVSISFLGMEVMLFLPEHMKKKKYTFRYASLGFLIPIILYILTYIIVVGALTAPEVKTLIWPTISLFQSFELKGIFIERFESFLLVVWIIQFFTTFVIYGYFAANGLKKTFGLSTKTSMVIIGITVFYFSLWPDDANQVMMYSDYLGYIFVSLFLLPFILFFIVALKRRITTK
Chain of GerA complex (GerAA-GerAB-GerAC) (P07870 18-373, further chain): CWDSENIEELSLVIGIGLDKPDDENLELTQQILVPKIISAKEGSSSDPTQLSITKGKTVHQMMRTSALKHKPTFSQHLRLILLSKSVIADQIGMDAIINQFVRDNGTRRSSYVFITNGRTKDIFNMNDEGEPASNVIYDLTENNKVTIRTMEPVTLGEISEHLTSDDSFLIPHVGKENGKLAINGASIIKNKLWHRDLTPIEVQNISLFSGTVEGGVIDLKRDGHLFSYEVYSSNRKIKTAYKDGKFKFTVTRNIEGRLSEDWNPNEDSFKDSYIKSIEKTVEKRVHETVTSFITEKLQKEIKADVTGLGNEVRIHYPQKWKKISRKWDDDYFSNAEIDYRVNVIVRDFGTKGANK
Chain of GerA complex (GerAA-GerAB-GerAC) (P07868 whole entry, further chain): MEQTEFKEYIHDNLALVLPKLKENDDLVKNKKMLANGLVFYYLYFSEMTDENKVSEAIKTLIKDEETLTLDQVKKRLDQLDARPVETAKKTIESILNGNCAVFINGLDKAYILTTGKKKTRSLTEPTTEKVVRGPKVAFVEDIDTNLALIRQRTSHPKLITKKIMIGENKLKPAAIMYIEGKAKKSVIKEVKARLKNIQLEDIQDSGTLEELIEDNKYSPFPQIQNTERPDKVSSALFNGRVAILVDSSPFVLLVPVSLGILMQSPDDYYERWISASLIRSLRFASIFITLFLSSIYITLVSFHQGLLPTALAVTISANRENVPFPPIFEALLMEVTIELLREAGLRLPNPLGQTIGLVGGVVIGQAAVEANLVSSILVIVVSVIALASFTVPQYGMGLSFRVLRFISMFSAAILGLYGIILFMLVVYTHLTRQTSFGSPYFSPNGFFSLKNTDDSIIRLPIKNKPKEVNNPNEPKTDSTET

How did the “% reduction in DiSC3(5) fluorescence at 50 mM” value turn out when C[C@H](N)C(=O)O [L-alanine] was run?
Its value is 30%.
